Test results as given in patent publication US11198741B2, “Medicines for topic use based on sulfated hyaluronic acid as activating or inhibiting agent of the cytokine activity” (Fidia Farmaceutici S.p.A., priority 2009, dated 2021).

What was measured:
[1] = tested on: IL-12; assay: Gene expression of IL-12 in human synoviocytes (PCR Real Time); type: cell-based; conditions: 3 days of treatment, FIG. 2: 0.5 mg/ml, vs control treated with non-sulfated HA 200 KD
Experimental: (§1) Human synoviocytes previously expanded in vitro and maintained in a culture at 37° C. with a medium of DMEM containing 10% of FCS, were seeded at a concentration of 20,000 cells per well (synoviocytes are cells capable of producing various types of cytokines, and are therefore normally used for this type of experimental test). […] After 3 days of treatment, the PCR Real Time was effected to evaluate the gene expression of IL-10 and IL-12: the cell RNA was extracted using the “Trizol” method, following the indications of the supplier (TRIZOL reagent, LIFE Technologies, GIBCO BRL). In short, the cells were lysed by the addition of 1.0 ml of Trizol and the total RNA was quantified by measuring its absorbance at 260 nm. The appropriate primers were selected for each gene to be amplified, using the software Primer3 (Roche Molecular Diagnostics, Pleasanton, Calif., USA). The gene expression was evaluated by means of PCR Real Time effected with a Rotor-gene TM5500 (Corbett research, Sydney, Australia). The PCR reactions were effected using primers at […] and SYBR Green (Invitroge, Carlsbad, Calif., USA) at 40 cycles of 15 s at 95° C., and 1 min. at 60° C. The value of “Fluorescence thresholds (Ct)” was automatically determined by the software, evaluating an amplification coefficient for the genes studied between 92 and 110%. […]

[2] = tested on: IL-10; assay: Gene expression of IL-10 in human synoviocytes (PCR Real Time); type: cell-based; conditions: 3 days of treatment, FIG. 1: HAS1 0.5 mg/ml, HAS3 0.1 mg/ml, vs control treated with non-sulfated HA 200 KD
Experimental: as §1

[3] = molecular target: T1, IL-1 receptor (Mus musculus, UniProt P13504); assay: Inhibition of the binding of 125I-IL-1 to its receptor in 3T3 fibroblasts (Radioligand Binding); conditions: 3T3 cells of mouse, 125I-IL-1 10 pM, sample 1 mg/ml, 37° C. 2 hours; both medium and low MW
T1 construct: the line of murine fibroblasts 3T3 was used, sensitive to the cytotoxic activity of IL-1, expressing its relative receptor; endogenous in cells; host or cells: 3T3 murine fibroblasts (whole cells)
T1 sequence (P13504 20-576): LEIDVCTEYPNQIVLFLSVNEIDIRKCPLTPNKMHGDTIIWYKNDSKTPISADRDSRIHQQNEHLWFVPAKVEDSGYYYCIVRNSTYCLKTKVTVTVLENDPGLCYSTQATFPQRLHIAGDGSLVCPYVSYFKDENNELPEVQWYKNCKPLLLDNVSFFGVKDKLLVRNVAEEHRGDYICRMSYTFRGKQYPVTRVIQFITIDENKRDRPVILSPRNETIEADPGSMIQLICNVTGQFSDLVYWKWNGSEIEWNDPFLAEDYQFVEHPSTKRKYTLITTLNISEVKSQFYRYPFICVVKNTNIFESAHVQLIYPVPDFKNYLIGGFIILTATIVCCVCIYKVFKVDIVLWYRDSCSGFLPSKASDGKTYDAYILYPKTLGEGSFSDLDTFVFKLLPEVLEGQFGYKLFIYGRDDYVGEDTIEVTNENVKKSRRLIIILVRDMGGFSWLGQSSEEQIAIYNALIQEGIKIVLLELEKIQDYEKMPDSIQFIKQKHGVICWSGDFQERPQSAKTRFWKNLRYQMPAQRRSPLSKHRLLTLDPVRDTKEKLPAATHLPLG
From the text: These experiments were effected to evaluate the effectiveness of the samples tested (prepared according to Examples 1-3 and 4) on the capacity of inhibiting the binding of IL-1 to its receptor expressed by 3T3 cells of mouse, normally used in vitro for this type of experiment, carried out with iodinated cytokine components for an evaluation in Radioligand Binding assays. The experimental procedure was effected as described in Chin J et al., J Exp Med, 1987, 165:70-86. In short, the line of murine fibroblasts 3T3 was used, sensitive to the cytotoxic activity of IL-1, expressing its relative receptor. […] At the end of the incubation, the cells were washed with phosphate buffer, then dissolved in 2.5 M of NaOH and counted in a γ-counter.

[4] = tested on: Herpes Simplex Virus-2 (HSV-2: G, 196 and Lyons strain); assay: Inhibition of viral cytopathogenicity in E6SM fibroblast cells, HSV-2; type: cell-based; conditions: 2nd day of incubation, numbers only in FIG. 10
[5] = tested on: Cytomegalovirus (CMV: AD-169 and Davis strain); assay: Inhibition of Cytomegalovirus plaque formation in HEL cells; type: cell-based; conditions: numbers only in FIG. 11
Experimental: The activity of the samples tested was determined by evaluating the inhibition of the cytopathogenicity determined by Cytomegalovirus (CMV: AD-169 and Davis strain) using the previous protocol. The antiviral activity was tested vs HEL cells (pulmonary embryonic cells) and was expressed as the concentration required for inhibiting the number of plaques formed by the above virus by 50%.

[6] = tested on: IL-12; assay: Protein synthesis of IL-12 in human PBMC (SearchLight array); conditions: not stimulated or stimulated with LPS or PHA (10 μg/ml), 24 hours, FIG. 8: 1 mg/ml, vs HA
Experimental: For these experimentations, mononucleate cells of human peripheral blood (PBMC) were adopted, deriving from various donors for evaluating the effect of HAS on the production of the cytokines listed above, using:
The separation of the PBMC (Bøyum A., Scand J Clin Lab Invest 21 Suppl, 1968, 97:77-89) was effected using the product Ficoll-Paque PLUS (GE Healthcare) and following the protocol indicated by the supplier. At day zero 100,000 cells were plated per well (using plates with 96 wells) in 200 μl of medium RPMI 1640, to which 10% of fetal bovine serum, HEPES 10 mM, Glutamine 2 mM, 1% Penicillin-Streptomycin 100 U/ml, had been added. […] The cells were treated separately with the three compounds at a concentration of 0.1 mg/ml or 1 mg/ml. After 24 hours of incubation at 37° C. (5% CO2), 100 μl of supernatant were taken from each well in order to analyze the production of IL-2, IL-7, IL-10 and IL-12.
The quantification of the inflammation mediators was effected by means of the SearchLight® technology, using a Custom Human 9-flex Array plate following the protocol indicated by the supplier in the technical card.

[7] = tested on: Vesicular stomatitis virus: VSV; type: cell-based

sulfated hyaluronic acid degree 3 [HAS3]
gene expression of IL-12 (synthesis of its mRNA) [1]: halving the synthesis of its mRNA | gene expression of the cytokine IL-10 [2]: significant increase | inhibition of the binding of IL-1 to its receptor [3]: 30% | antiviral activity (inhibition of the cytopathogenicity of the virus) vs HSV-2 [4]: powerful antiviral action | antiviral activity vs Cytomegalovirus (inhibition of the number of plaques) [5]: clear and significant positive result | synthesis of IL-12 [6]: significantly reducing | antiviral activity (inhibition of the cytopathogenicity of the virus) vs VSV [7]: very powerful antiviral activity
